Active and inactive are the calls of the source.
Columns and labels:
[1] = target: T1, Voltage-gated N-type calcium channel alpha-1B subunit/Amyloid beta A4 precursor protein-binding family A member 1 (Homo sapiens, UniProt Q00975+Q02410); format: protein assay
[2] = target: T2, Long-chain-fatty-acid--AMP ligase FadD28 (Mycobacterium tuberculosis, UniProt P9WQ59); experiment: Fluorescence polarization aasay to screen for inhibitors that compete for the binding of FadD28 to a bisubstrate Measured in Biochemical System Using Plate Reader - 2147-01_Inhibitor_Dose_CherryPick_Activity.; format: functional, Mycobacterium tuberculosis H37Rv
T2 sequence (P9WQ59 whole entry): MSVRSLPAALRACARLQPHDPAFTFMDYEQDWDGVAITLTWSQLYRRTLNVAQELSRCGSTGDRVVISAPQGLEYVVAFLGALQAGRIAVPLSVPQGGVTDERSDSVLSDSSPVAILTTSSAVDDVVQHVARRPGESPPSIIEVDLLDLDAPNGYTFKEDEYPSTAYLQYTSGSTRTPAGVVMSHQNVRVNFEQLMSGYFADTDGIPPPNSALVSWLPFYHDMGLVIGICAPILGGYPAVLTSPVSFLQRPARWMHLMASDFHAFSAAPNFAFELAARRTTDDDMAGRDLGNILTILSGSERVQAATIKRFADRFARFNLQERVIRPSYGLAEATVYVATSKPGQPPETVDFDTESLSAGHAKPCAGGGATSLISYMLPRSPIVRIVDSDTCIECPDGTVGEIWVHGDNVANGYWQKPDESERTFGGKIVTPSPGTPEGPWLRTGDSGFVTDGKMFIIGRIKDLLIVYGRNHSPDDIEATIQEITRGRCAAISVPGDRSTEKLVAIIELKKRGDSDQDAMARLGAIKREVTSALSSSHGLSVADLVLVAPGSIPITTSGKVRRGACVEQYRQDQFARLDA

[3] = target: T1, Voltage-gated N-type calcium channel alpha-1B subunit/Amyloid beta A4 precursor protein-binding family A member 1; format: protein assay; remark: listed apart in the source
Aminopeptidase N = target: T3, Aminopeptidase N (Plasmodium falciparum FcB1/Columbia, UniProt O96935); experiment: malaria alanyl aminopeptidase activity blockers – biochemical, fluorogenic H-Leu-NHMec substrate, 1536-well (AID 1445); set-up: species or system Plasmodium falciparum 3D7, 3D7
T3 sequence (O96935 whole entry): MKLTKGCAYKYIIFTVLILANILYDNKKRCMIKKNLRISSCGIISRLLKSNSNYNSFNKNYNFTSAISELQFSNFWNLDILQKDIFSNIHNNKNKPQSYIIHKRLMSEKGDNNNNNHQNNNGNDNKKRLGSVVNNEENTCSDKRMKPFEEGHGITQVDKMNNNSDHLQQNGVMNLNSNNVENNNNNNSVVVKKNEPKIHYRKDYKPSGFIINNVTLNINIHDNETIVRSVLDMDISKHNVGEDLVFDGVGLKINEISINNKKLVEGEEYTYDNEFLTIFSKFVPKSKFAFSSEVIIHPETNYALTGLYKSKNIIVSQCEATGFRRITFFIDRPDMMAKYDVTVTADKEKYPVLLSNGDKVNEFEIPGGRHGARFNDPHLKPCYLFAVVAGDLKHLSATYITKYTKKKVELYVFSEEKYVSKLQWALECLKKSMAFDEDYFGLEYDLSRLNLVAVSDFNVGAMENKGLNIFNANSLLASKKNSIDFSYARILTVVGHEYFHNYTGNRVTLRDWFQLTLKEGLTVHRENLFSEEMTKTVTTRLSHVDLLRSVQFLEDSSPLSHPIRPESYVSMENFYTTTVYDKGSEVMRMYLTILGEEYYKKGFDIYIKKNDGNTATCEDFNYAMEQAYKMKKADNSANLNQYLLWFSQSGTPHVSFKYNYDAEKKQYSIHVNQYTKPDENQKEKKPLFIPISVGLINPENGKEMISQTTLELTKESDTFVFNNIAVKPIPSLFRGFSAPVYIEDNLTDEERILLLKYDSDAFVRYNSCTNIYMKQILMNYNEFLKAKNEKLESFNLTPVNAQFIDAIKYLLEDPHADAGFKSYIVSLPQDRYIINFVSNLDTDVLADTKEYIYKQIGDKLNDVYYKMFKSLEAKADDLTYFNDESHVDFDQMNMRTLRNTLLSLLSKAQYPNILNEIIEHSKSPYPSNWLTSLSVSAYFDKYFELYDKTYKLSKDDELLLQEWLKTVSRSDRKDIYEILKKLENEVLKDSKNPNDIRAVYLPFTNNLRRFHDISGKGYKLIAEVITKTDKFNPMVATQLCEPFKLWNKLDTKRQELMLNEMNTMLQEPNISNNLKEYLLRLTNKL

[4] = viability loss of HPDE-C7K cells – cell-based, fluorescence, HTS, primary screen (AID 431); format: functional; conditions: Homo sapiens
[5] = HPDE-C7 pancreatic duct cell viability loss – fluorescence, HTS (AID 430); format: functional, cell-based; conditions: Homo sapiens
Leucine aminopeptidase = target: T4, Leucine aminopeptidase (Plasmodium falciparum 3D7, UniProt Q8IL11); experiment: P. falciparum M17LAP inhibitors, primary screen, biochemical, fluorogenic H-Leu-NHMec substrate, 1536-well (AID 1619); format: functional
T4 sequence (Q8IL11 whole entry): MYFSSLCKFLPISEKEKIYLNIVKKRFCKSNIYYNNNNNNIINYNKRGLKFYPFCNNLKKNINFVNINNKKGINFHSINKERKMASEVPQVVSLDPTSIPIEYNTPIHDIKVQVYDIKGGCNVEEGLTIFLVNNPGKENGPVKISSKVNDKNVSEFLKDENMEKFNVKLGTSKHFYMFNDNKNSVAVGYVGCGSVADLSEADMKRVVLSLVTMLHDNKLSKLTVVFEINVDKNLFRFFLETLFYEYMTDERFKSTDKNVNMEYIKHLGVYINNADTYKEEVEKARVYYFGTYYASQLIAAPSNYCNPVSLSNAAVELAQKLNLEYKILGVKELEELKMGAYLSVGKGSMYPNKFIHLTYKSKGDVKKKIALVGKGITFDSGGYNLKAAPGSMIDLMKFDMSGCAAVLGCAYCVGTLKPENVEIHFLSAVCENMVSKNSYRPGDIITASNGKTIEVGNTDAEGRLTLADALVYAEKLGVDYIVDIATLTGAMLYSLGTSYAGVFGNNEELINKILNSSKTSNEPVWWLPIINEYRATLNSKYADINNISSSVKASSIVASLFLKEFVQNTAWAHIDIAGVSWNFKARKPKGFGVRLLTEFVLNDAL

Nonstructural protein 1 = Nonstructural protein 1 (Influenza A virus, UniProt Q194T2); format: functional, Influenza A virus (A/California/07/2009(H1N1))
Nonstructural protein 1, sequence (Q194T2 whole entry): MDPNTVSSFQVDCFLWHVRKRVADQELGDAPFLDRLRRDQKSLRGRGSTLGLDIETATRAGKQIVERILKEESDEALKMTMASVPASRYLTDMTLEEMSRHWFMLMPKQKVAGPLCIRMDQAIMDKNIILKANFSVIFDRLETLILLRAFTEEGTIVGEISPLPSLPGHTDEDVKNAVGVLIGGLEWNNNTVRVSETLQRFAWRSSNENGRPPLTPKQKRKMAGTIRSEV

[6] = system: Streptococcus sp. 'group A'; experiment: Streptococcus pyogenes SK(-)GAS viability under kanamycin – luminescence, BacTiterGlo, confirmation, counter-screen for streptokinase expression inhibitor project, dose response (AID 1900); format: functional, organism-based
Streptococcus = experiment: GAS UMAA2166 growth inhibition – luminescence, BacTiterGlo, counter-screen for streptokinase expression inhibitor project, dose response (AID 1915); format: functional, organism-based;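 also: potency for reduction of bacterial viability or growth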
[7] = target: T5, Short transient receptor potential channel 4 (Mus musculus, UniProt Q9QUQ5); experiment: calcium entry via TRPC4 opening agents – cell-based, HEK293 TRPC4/mu-opioid, Fluo-4 calcium, dose response (AID 434937); format: functional
T5 sequence (Q9QUQ5 whole entry): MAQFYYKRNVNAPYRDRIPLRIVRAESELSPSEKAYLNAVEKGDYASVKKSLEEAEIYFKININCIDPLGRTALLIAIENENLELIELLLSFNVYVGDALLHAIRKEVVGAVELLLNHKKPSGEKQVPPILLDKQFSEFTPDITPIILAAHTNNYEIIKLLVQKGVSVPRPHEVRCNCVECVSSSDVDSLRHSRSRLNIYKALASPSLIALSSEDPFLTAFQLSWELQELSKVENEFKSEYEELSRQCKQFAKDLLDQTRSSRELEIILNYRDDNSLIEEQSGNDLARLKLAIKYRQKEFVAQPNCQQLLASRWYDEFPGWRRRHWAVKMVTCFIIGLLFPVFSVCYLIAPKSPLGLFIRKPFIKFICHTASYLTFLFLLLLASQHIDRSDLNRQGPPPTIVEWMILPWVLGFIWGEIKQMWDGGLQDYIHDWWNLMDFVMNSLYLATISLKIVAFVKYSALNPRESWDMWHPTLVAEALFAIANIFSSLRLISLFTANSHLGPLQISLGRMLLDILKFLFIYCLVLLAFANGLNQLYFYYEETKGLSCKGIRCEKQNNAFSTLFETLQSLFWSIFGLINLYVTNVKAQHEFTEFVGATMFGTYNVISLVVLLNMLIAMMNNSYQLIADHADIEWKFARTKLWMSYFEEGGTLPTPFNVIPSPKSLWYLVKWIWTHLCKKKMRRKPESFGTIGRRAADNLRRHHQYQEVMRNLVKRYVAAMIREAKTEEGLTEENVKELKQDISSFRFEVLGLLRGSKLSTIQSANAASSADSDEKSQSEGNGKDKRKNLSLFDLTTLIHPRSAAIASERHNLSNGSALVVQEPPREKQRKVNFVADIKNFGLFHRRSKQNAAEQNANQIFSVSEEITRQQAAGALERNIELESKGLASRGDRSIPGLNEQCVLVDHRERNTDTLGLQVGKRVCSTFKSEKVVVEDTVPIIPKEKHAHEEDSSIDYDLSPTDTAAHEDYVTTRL

T1 sequence (Q00975 whole entry): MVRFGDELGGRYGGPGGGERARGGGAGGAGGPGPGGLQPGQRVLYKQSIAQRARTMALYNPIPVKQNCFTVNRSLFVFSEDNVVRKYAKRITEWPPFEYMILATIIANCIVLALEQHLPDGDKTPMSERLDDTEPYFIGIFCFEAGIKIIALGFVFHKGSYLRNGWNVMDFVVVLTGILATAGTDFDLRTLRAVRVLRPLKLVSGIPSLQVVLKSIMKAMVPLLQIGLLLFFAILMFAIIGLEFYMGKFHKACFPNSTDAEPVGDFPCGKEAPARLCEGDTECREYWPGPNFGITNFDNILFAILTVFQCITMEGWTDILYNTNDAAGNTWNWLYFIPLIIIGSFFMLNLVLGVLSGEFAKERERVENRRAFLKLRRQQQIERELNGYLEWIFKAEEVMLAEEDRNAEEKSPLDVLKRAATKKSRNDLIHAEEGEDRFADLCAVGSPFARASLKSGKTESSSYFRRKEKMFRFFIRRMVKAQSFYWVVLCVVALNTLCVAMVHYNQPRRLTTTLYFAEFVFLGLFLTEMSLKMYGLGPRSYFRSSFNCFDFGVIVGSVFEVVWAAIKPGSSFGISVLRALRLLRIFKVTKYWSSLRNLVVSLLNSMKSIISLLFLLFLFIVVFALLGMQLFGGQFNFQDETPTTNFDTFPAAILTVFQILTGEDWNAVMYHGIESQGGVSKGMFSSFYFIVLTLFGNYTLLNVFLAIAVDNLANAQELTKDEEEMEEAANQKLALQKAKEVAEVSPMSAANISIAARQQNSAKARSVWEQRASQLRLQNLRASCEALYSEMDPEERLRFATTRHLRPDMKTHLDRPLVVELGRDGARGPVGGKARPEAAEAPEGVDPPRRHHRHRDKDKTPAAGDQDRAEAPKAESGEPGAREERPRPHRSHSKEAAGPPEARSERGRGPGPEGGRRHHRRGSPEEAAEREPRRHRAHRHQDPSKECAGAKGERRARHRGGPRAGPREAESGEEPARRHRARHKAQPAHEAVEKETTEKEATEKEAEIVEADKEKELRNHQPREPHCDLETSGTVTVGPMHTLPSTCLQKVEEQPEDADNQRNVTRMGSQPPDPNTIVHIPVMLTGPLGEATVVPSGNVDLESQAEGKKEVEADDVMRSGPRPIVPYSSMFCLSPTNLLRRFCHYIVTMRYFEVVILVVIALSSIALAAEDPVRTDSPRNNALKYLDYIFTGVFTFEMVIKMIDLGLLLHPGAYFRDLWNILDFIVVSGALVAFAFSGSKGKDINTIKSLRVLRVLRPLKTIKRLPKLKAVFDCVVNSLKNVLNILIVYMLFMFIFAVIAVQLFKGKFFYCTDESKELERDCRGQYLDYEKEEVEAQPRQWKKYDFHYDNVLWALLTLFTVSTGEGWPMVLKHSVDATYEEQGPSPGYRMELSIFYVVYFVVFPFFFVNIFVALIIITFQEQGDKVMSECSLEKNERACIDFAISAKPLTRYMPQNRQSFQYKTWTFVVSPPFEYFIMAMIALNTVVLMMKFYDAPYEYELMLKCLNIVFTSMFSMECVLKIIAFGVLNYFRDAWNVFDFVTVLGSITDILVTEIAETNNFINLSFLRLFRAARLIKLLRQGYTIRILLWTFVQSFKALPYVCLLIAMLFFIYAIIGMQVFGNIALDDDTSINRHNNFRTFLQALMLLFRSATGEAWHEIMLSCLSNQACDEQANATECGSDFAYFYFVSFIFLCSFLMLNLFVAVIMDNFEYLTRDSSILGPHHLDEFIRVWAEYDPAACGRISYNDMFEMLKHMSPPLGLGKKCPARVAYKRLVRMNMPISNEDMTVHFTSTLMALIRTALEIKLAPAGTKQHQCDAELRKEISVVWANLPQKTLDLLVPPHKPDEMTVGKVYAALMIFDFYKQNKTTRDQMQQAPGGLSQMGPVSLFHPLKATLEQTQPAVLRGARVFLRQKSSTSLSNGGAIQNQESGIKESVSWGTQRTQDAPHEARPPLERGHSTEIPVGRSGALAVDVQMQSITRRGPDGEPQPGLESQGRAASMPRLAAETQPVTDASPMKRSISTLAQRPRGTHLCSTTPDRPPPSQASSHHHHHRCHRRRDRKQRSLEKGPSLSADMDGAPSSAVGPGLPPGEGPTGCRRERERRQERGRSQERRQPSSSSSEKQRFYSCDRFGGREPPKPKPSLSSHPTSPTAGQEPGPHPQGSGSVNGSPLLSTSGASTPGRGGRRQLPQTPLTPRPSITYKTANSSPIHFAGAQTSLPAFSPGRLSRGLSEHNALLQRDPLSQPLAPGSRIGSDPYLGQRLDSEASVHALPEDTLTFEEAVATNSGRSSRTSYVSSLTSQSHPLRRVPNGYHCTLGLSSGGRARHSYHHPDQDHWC
T1 sequence (Q02410 whole entry): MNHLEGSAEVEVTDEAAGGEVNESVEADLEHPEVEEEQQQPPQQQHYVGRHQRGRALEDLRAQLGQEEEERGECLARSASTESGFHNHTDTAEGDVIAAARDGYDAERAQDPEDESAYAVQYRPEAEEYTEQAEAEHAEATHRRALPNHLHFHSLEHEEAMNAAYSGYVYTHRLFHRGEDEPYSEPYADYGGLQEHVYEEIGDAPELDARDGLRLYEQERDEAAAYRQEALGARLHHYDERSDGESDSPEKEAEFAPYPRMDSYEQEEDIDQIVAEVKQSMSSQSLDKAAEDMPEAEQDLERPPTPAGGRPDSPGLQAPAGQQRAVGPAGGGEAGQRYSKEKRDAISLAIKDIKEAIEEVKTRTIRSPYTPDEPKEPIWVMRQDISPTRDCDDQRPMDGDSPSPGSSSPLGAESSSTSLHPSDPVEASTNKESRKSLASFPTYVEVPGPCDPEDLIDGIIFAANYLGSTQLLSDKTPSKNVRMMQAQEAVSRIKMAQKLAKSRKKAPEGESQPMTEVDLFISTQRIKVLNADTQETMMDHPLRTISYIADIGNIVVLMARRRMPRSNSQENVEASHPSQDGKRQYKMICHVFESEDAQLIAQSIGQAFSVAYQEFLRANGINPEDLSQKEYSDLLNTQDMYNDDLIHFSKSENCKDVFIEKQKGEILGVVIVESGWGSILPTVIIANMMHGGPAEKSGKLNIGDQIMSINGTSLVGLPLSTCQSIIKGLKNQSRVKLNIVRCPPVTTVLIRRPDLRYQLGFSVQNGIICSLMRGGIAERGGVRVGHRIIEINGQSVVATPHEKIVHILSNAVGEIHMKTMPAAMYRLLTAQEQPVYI

Which IC50 [1] does the source give for `COC(=O)c1cc(NC(=O)c2ccccc2)c(=O)oc1/C=C/Nc1ccc(Oc2ccccc2)cc1` here?
The IC50 was 6.82 µM (active).

And the AC50 [2]?
The AC50 was 60.3 µM (active).

And the IC50 [3]?
The IC50 was > 50 µM (inactive).

With `Cc1cc(=O)oc2c(CN3CCCCC3)c(O)c(Cl)cc12` as the molecule, how does the IC50 (Aminopeptidase N) read?
Its IC50 is 59.6 µM (active).

Which IC50 (Aminopeptidase N) does the source give for `Cc1c(N2C(=O)C(O)=C(C(=O)c3ccc(Cl)cc3)C2c2ccccc2)c(=O)n(-c2ccccc2)n1C` (centres undefined) here?
The IC50 was 62.1 µM (active).

Which EC50 [4] does the source give for `CN(C)/C=C/C(=O)c1nnn(C2CCCCC2)c1NC1CCCCC1` here?
The EC50 was > 20 µM (not active).

And the EC50 [5]?
Its EC50 is > 20 µM (not active).

Which EC50 [4] does the source give for `O=C1c2n[nH]c(-c3ccccc3O)c2C(c2ccccc2F)N1Cc1ccco1` (centres undefined) here?
Its EC50 is 15 µM (active).

And the EC50 [5]?
The EC50 was 13.1 µM (active).

Which IC50 (Leucine aminopeptidase) does the source give for `COc1ccc(NC(=O)Cc2c(F)cccc2Cl)cc1` here?
Its IC50 is 13.6 µM (active).

Which IC50 (Nonstructural protein 1) does the source give for `Cc1cccnc1NCc1ccc(O)c2ncccc12` here?
Its IC50 is 14.1 µM (active).

What about the EC50 [4] of the same molecule?
Its EC50 is 10 µM (active).

And the EC50 [6]?
The EC50 was 2.9 µM (active).

And the EC50 (Streptococcus)?
Its EC50 is 3.33 µM (active).

What about the EC50 [5] of the same molecule?
The EC50 was 13.6 µM (active).

For `O=C(Nc1ccc(-n2ccnc2P(=O)(O)c2ccccc2)cc1)c1ccccc1Br`, which IC50 (Aminopeptidase N) is on record?
Its IC50 is 11.2 µM (active).

For `CCOC(=O)c1nnn2c1nc(Nc1cccc(C(F)(F)F)c1)c1ccccc12`, which IC50 [1] is on record?
Its IC50 is 25.1 µM (active).

What about the IC50 [3] of the same molecule?
The IC50 was > 50 µM (inactive).

For `Cc1ccc(NC(=O)CCN2CCC(Cc3ccccc3)CC2)cc1`, which EC50 [7] is on record?
Its EC50 is 66.7 nM (active).

Reference: ChEMBL document CHEMBL1201862, “PubChem BioAssay data set” (2004)
